Experimental findings from PMC7037732, “Synthesis of Combretastatin A-4 and 3′-Aminocombretastatin A-4 derivatives with Aminoacid Containing Pendants and Study of their Interaction with Tubulin and as Downregulators of the VEGF, hTERT and c-Myc Gene Expression” (Molecules, 2020) are described below.

Broadly, the IC50 is the midpoint of a concentration-inhibition curve. A high value points to lower potency.

Test [1] relates to purified tubulin. Nature of the test: Critical concentration (CrC) for the assembly of purified tubulin in GAB. Format: biochemical. The conditions noted are these: compound 27.5 μM, tubulin 25 μM, glycerol (GAB) and GTP assembly buffer; control 7.9 ± 1.2. How it is done: The effect on the self-assembly of tubulin was determined by measuring the critical concentration (CrC).

For test [2], the system named is A-549 cells. Briefly: Cell cycle distribution by flow cytometry. The conditions noted are these: A-549, 24 h. Format: cell-based, human. How it is done:
The effects of some CA-4 derivatives on the cell cycle were evaluated in A-549 cells.
The effects of some AmCA-4 derivatives on the cell cycle were also evaluated in A-549 cells.
The supernatant and trypsinated cells were harvested and then centrifuged (1200 rpm, 5 min, 4 °C). The cell pellet was resuspended in 1 mL of cold 70% ethanol for 30 min at −20 °C. Cells were centrifuged (2000 rpm, 5 min, 4 °C) to remove ethanol, and then the cell pellet was resuspended in the staining mix containing 50 µg/mL propidium iodide (Molecular Probes, France) and 100 µg/mL RNAse A (Sigma, France) in PBS for 20 min at room temperature in darkness. Samples were analyzed on a Becton Dickinson FACScan flow cytometer using the CellQuest software, which was also used to determine the percentage of cells in the G2/M phases of the cell cycle. PI was excited at 488 nm, and fluorescence analyzed at 620 nm on channel Fl-2.
(In general: In flow cytometry, cells or beads pass a laser one at a time.)

The subject of test [3] is MCF-7 (breast adenocarcinoma). Briefly: Inhibition of cell proliferation (MTT), MCF-7. The conditions noted are these: Homo sapiens, 48 h of treatment (footnote), average ±SD of three experiments. Format: cell-based, human. The text has this:
(§1) The ability of the synthetic compounds to inhibit cell proliferation was established by means of their IC50 values towards the tumor cell lines HT-29 (human colon adenocarcinoma), MCF-7 (breast adenocarcinoma) and A-549 (human pulmonary adenocarcinoma), as well as towards the nontumor cell line HEK-293 (human embryonic kidney cells). Results for compounds derived from CA-4 are presented in Table 1, along with the calculated selectivity indexes SIA (for HT-29 cell line), SIB (for MCF-7 cell line) and SIc (for A-549 cell line), obtained by dividing the IC50 values of the nontumor cell line (HEK-293) by those of the corresponding tumor cell line. The higher the SI index, the higher the therapeutic safety margin.
(§2) Cell culture media were purchased from Gibco (Grand Island, NY, USA). Fetal bovine serum (FBS) was a product of Harlan-Seralab (Belton, U.K.). Supplements and other chemicals not listed in this section were obtained from Sigma Chemical Co. (St. Louis, MO, USA). Plastics for cell culture were supplied by Thermo Fischer Scientific Inc., Madrid, Spain. All tested compounds were dissolved in DMSO at a concentration of 10 μg/mL and stored at −20 °C until use. HT-29, MCF-7, A-549 and HEK-293 cell lines were maintained in a Dulbecco’s modified Eagle’s medium (DMEM) containing glucose (1 g/L), glutamine (2 mM), penicillin (50 IU/mL), streptomycin (50 μg/mL) and amphotericin B (1.25 μg/mL), supplemented with 10% FBS. Cells from human non-small lung carcinoma (clone A549; ATCC n°: CCL2, MD, USA) were routinely grown at 37 °C in a humidified atmosphere of 5% CO2. Cells were maintained in a standard medium composed of RPMI 1640 (Lonza, Group Ltd., Basel, Switzerland), supplemented with 10% fetal bovine serum (FBS), 2 mM L-glutamine and 1% penicillin and streptomycin (Invitrogen). Cells were free from mycoplasma as determined by MycoAlert tests (Lonza, Group Ltd., Basel, Switzerland).
(§3) A total of 5 × 10^3 HT-29, MCF-7 or HEK-293 cells in a total volume of 100 μL of their respective growth media were incubated with serial dilutions of the tested compounds. The 3-(4,5-dimethylthiazol-2-yl)-2,5-diphenyltetrazolium bromide (MTT; Sigma Chemical Co.) dye reduction assay in a 96-well microplate was used, as previously described. […] The resulting formazan was dissolved in 150 μL of 0.04 N HCl/2-propanol and read at 550 nm. All determinations were carried out in triplicate.

Test [4] concerns HEK-293 (human embryonic kidney cells). Nature of the test: Inhibition of cell proliferation (MTT), nontumor HEK-293. The conditions noted are these: Homo sapiens, 48 h of treatment (footnote), average ±SD of three experiments. Format: cell-based.
Description: as §1, §2, §3

The subject of test [5] is HT-29 (human colon adenocarcinoma). Briefly: Inhibition of cell proliferation (MTT), HT-29. Format: cell-based. The conditions noted are these: Homo sapiens, 48 h of treatment (footnote), average ±SD of three experiments.
Description: as §1, §2, §3

The subject of test [6] is A-549 (human pulmonary adenocarcinoma). Briefly: Inhibition of cell proliferation (MTT), A-549. Format: cell-based. The conditions noted are these: 48 h of treatment (footnote), average ±SD of three experiments.
Description: as §1
as §2, with “Switzerland). […]” for “Switzerland).”

[7] abbreviates: concentration per compound as in Tables 6 and 7.
Where [8] appears, read: Homo sapiens, A549, 48 h, Table 1.
Setting [9] is: Homo sapiens, A549, 48 h, Table 2.

In the case of `COc1ccc(/C=C\c2cc(OC)c(OC)c(OC)c2)cc1OCC(=O)N1CCC[C@H]1C(=O)O` [Compound 4.5], the “CrC (critical concentration)” value in test [1] is listed as 9.2 ± 0.5 µM. This compound showed a G0/G1 in test [2] (75 μM) of 72%. In test [2] (75 μM), this compound gave a G2/M of 16%. Besides, the S in test [2] (75 μM) was determined as 12%. The “Effect on the cell cycle” value in test [2] (setting [7]) is “do not exert any significant effect on the cells”. Further, the half-inhibitory concentration (IC50) in test [3] (MCF7, 48 h, Table 1) came out at 83 ± 16 µM; in test [4] (HEK293, 48 h, Table 1), 45 ± 16 µM; in test [5] (HT-29, 48 h, Table 1), 26 ± 13 µM; in test [6] (setting [8]) it was 110 ± 10 µM.
For the compound `COC(=O)[C@@H]1CCCN1C(=O)COc1cc(/C=C\c2cc(OC)c(OC)c(OC)c2)ccc1OC` [Compound 3.5], in test [1], the “CrC (critical concentration)” value is given as 10.4 ± 2.0 µM. For the same compound, in test [2] (100 μM), the G0/G1 amounted to 77 ± 2%. In test [2] (100 μM), this compound came in with a G2/M of 7 ± 1%. In test [2] (100 μM), the S is given as 16 ± 2%. Moreover, the “Effect on the cell cycle” value in test [2] (setting [7]) was “do not exert any significant effect on the cells”. Besides, the IC50 in test [3] (MCF7, Table 1) was determined as 24 ± 2 µM; in test [4] (HEK293, Table 1), 20 ± 1 µM; in test [5] (HT-29, Table 1), 48 ± 5 µM; in test [6] (setting [8]), 50 ± 10 µM.
Regarding `COC(=O)[C@H](CCSC)NC(=O)COc1cc(/C=C\c2cc(OC)c(OC)c(OC)c2)ccc1OC` [Compound 3.9], in test [1], the “CrC (critical concentration)” value is 8.06 ± 0.04 µM. This compound had a G0/G1 in test [2] (75 μM) of 47 ± 4%. The G2/M in test [2] (75 μM) came out at 36 ± 1%. The S in test [2] (75 μM) is on record as 17 ± 3%. Further, the IC50 in test [3] (MCF7, Table 1) is 10 ± 3 µM; in test [4] (HEK293, Table 1) it was 8 ± 1 µM; in test [5] (HT-29, Table 1), 16 ± 7 µM; in test [6] (setting [8]), under 10 µM; in test [6] (Table 1), 10 ± 2 µM.
For the compound `COC(=O)[C@H](CC(C)C)NC(=O)COc1cc(/C=C\c2cc(OC)c(OC)c(OC)c2)ccc1OC` [Compound 3.3], the “CrC (critical concentration)” value in test [1] amounted to 9.4 ± 1.4 µM. This compound also registered a G0/G1 in test [2] (75 μM) of 45 ± 6%. Besides, the G2/M in test [2] (75 μM) worked out at 36 ± 4%. Moreover, the S in test [2] (75 μM) was 19 ± 2%. The IC50 was 19 ± 6 µM in test [3] (MCF7, 48 h, Table 1); 9 ± 2 µM in test [4] (HEK293, 48 h, Table 1); 29 ± 6 µM in test [5] (HT-29, 48 h, Table 1); under 10 µM in test [6] (setting [8]); 8 ± 1 µM in test [6] (Table 1).
On to `COC(=O)[C@@H](NC(=O)COc1cc(/C=C\c2cc(OC)c(OC)c(OC)c2)ccc1OC)C(C)C` [Compound 3.2], for which, in test [1], the “CrC (critical concentration)” value came to 11.7 ± 2.3 µM. The compound also registered a G0/G1 in test [2] (75 μM) of 42 ± 3%. Moreover, the G2/M in test [2] (75 μM) was 44 ± 1%. This compound also came in with a S in test [2] (75 μM) of 14 ± 4%. The 50% inhibitory concentration (IC50) in test [3] (MCF7, 48 h, Table 1) was 12 ± 6 µM; in test [4] (HEK293, 48 h, Table 1), 5 ± 2 µM; in test [5] (HT-29, 48 h, Table 1), 24 ± 4 µM; in test [6] (setting [8]) it was 24 ± 1 µM.
Turning to `COc1ccc(/C=C\c2cc(OC)c(OC)c(OC)c2)cc1NC(=O)[C@H](N)CC(C)C` [Compound 10.2], the “CrC (critical concentration)” value in test [1] is on record as 7.0 ± 0.5 µM. This compound showed a G0/G1 in test [2] (0.5 µM) of 63 ± 4%. Also, in test [2] (0.5 µM), the G2/M was 22 ± 2%. The compound also registered a S in test [2] (0.5 µM) of 16 ± 3%. Further, the “Effect on the cell cycle” value in test [2] (setting [7]) is recorded as “do not accumulate a high percentage of cells in phase G2/M”. Also, the IC50 in test [3] (MCF7, 48 h, Table 2) turned out to be 2 ± 0.9 µM; in test [4] (HEK293, 48 h, Table 2) it was 0.43 ± 0.04 µM; in test [5] (HT-29, 48 h, Table 2), 1.05 ± 0.14 µM; in test [6] (setting [9]), 0.157 ± 0.007 µM.
`COC(=O)[C@H]1CCCN1C(=O)COc1cc(/C=C\c2cc(OC)c(OC)c(OC)c2)ccc1OC` [Compound 5.4]: the “CrC (critical concentration)” value in test [1] was found to be 9 ± 3 µM. In addition, the G0/G1 in test [2] (75 μM) came to 36 ± 4%. This compound displayed a G2/M in test [2] (75 μM) of 50 ± 1%. This compound also returned a S in test [2] (75 μM) of 14 ± 3%. Moreover, the half-maximal inhibitory concentration (IC50) in test [3] (MCF7, Table 1) came to 10 ± 4 µM; in test [4] (HEK293, Table 1) it was 5.7 ± 0.8 µM; in test [5] (HT-29, Table 1), 50 µM; in test [6] (setting [8]), 15 ± 1 µM.
As for `COC(=O)[C@@H](CO)NC(=O)COc1cc(/C=C\c2cc(OC)c(OC)c(OC)c2)ccc1OC` [Compound 5.5], the “CrC (critical concentration)” value in test [1] is 9.2 ± 0.9 µM. Besides, the “cells accumulated in the G2/M phase” value in test [2] (concentration per compound as in Tables 6 and 7, control 14%) is 50–70%. Besides, the IC50 stood at 7 ± 2 µM in test [3] (MCF7, 48 h, Table 1); 9 ± 3 µM in test [4] (HEK293, 48 h, Table 1); 11 ± 2 µM in test [5] (HT-29, 48 h, Table 1); 28 ± 1 µM in test [6] (setting [8]).
As for `COc1ccc(/C=C\c2cc(OC)c(OC)c(OC)c2)cc1OCC(=O)N[C@@H](C(=O)O)C(C)C` [Compound 6.1], in test [1], the “CrC (critical concentration)” value was determined as 9.4 ± 1.3 µM. The G0/G1 in test [2] (100 μM) is listed as 67 ± 2%. The compound also gave a G2/M in test [2] (100 μM) of 13 ± 1%. Further, the S in test [2] (100 μM) was determined as 20 ± 2%. For the same compound, in test [2] (setting [7]), the “Effect on the cell cycle” value was “do not exert any significant effect on the cells”. In addition, the IC50 in test [3] (MCF7, Table 1) came out at 46 ± 3 µM; in test [4] (HEK293, Table 1), 39 ± 6 µM; in test [5] (HT-29, Table 1), 45 ± 5 µM; in test [6] (setting [8]), 54 ± 7 µM.
Turning to `COc1ccc(/C=C\c2cc(OC)c(OC)c(OC)c2)cc1NC(=O)[C@H]1CCCN1` [Compound 10.4], in test [1], the “CrC (critical concentration)” value was found to be 8.7 ± 1.2 µM. Besides, the IC50 was 0.6 ± 0.14 µM in test [3] (MCF7, 48 h, Table 2); 3 ± 0.6 µM in test [4] (HEK293, 48 h, Table 2); 4.4 ± 1.9 µM in test [5] (HT-29, 48 h, Table 2); 7.03 ± 0.22 µM in test [6] (setting [9]).
